Literature values as cited in PubChem BioAssay AID1259409 (Chemical Carcinogenesis Research Information System (CCRIS), 2018).
“And” between values parts separate entries of the source, which are not always exact repeats. Equal entries are not always repeated.

Tested on: rodent chemically induced tumor inhibition, incidence and multiplicity
Assay: CCRIS tumor inhibitor studies
Details: Route [Inhibitor]: ORAL; for tumour outcome (control, treated, inhibition, significance): Promoter: NONE USED; for outcome: Carcinogen: NONE, Strain/Sex: APC/MIN/MALE, Promoter: NONE

CN1C(C(=O)Nc2ccccn2)=C(O)c2ccccc2S1(=O)=O
tumour outcome (control, treated, inhibition, significance) (Carcinogen: N-BUTYL-N-(4-HYDROXYBUTYL)NITROSAMINE, 3817-11-6, Dose [Inhibitor]: 0, 0.0075% IN DIET FOR 12 WK BEGINNING POST CARCINOGEN TREATMENT (STUDY DURATION: 20 WK), Species: RAT, Strain/Sex: F344/MALE, Target Tissue: Type of Lesion: URINARY BLADDER: TRANSITIONAL CELL CARCINOMA, Dose [Carcinogen]: 0.05% IN DRINKING WATER FOR 8 WK): 10/12 (83%), 4/12 (33%), 60%, p<0.05 | tumour outcome (control, treated, inhibition, significance) (Carcinogen: N-BUTYL-N-(4-HYDROXYBUTYL)NITROSAMINE, 3817-11-6, Dose [Inhibitor]: 0, 15 MG/KG DIET BEGINNING 1 WK PRIOR TO CARCINOGEN TREATMENT AND CONTINUING FOR DURATION OF STUDY (STUDY DURATION: 180, Species: MOUSE, Strain/Sex: BDF/MALE, Target Tissue: Type of Lesion: BLADDER: CARCINOMA, Dose [Carcinogen]: 7.5 MG IN 0.1 ML OF ETHANOL:WATER (20:80) 1/WK FOR 8 WK): 25/63 (40%), 5/69 (7%), 83%, p<0.0001 | tumour outcome (control, treated, inhibition, significance) (Carcinogen: N-BUTYL-N-(4-HYDROXYBUTYL)NITROSAMINE, 3817-11-6, Dose [Inhibitor]: 0, 30 MG/KG DIET BEGINNING 1 WK PRIOR TO CARCINOGEN TREATMENT AND CONTINUING FOR DURATION OF STUDY (STUDY DURATION: 180, Species: MOUSE, Strain/Sex: BDF/MALE, Target Tissue: Type of Lesion: BLADDER: CARCINOMA, Dose [Carcinogen]: 7.5 MG IN 0.1 ML OF ETHANOL:WATER (20:80) 1/WK FOR 8 WK): 28/65 (43%), 7/56 (13%), 70%, p<0.001 | tumour outcome (control, treated, inhibition, significance) (Carcinogen: N-BUTYL-N-(4-HYDROXYBUTYL)NITROSAMINE, 3817-11-6, Dose [Inhibitor]: 0, 75 PPM IN DIET FOR 12 WK BEGINNING POST CARCINOGEN TREATMENT (STUDY DURATION: 20 WK), Species: RAT, Strain/Sex: F344/MALE, Target Tissue: Type of Lesion: URINARY BLADDER: TRANSITIONAL CELL CARCINOMA, Dose [Carcinogen]: 0.05% IN DRINKING WATER FOR 8 WK): 18/20 (90%), 3/19 (16%), 82%, p<0.0001 | tumour outcome (control, treated, inhibition, significance) (Carcinogen: N-METHYL-N-NITROSOUREA, 684-93-5, Dose [Inhibitor]: 130 MG/KG DIET DAILY STARTING 7 D AFTER LAST CARCINOGEN TREATMENT AND CONTINUING FOR 19 WK (STUDY DURATION: 21 WK), Species: RAT, Strain/Sex: SPRAGUE-DAWLEY/MALE, Target Tissue: Type of Lesion: INTESTINES: TUMOR, Dose [Carcinogen]: 0.8% IN 0.5 ML WATER 3 TIMES AT 2 D INTERVALS): 9/9 (100%), 5/10 (50%), 50%, not calculated and 9/9 (100%), 3/9 (33%), 67%, not calculated | tumour outcome (control, treated, inhibition, significance) (Carcinogen: N-METHYLNITROSOUREA, 684-93-5, Dose [Inhibitor]: 0, 130 MG/KG VEGETABLE DIET (2.5 MG/D) BEGINNING 7 D POST LAST CARCINOGEN TREATMENT AND CONTINUING FOR STUDY DURATION (S, Species: RAT, Strain/Sex: CD-1/MALE, Target Tissue: Type of Lesion: INTESTINE: TUMOR, Dose [Carcinogen]: 0.5 ML OF 0.8% WATER SOLUTION 1/2 D FOR 6 D): 9/9 (100%), 3/9 (33%), 67%, not calculated | outcome (Dose [Inhibitor]: 12 PPM IN DIET FOR 2 MONTHS (STUDY DURATION: 2 MONTHS), Species: MOUSE, Target Tissue: Type of Lesion: DISTAL SMALL INTESTINE: TUMOR): 10.38, 5.47, 47%, p<0.01 | outcome (Dose [Inhibitor]: 12 PPM IN DIET FOR 2 MONTHS (STUDY DURATION: 2 MONTHS), Species: MOUSE, Target Tissue: Type of Lesion: MIDDLE SMALL INTESTINE: TUMOR): 23.75, 16.20, 32%, not significant | outcome (Dose [Inhibitor]: 12 PPM IN DIET FOR 2 MONTHS (STUDY DURATION: 2 MONTHS), Species: MOUSE, Target Tissue: Type of Lesion: PROXIMAL SMALL INTESTINE: TUMOR): 7.63, 14.80, -94%, p<0.01 | outcome (Dose [Inhibitor]: 25 PPM IN DIET FOR 2 MONTHS (STUDY DURATION: 2 MONTHS), Species: MOUSE, Target Tissue: Type of Lesion: DISTAL SMALL INTESTINE: TUMOR): 10.38, 2.50, 76%, p<0.001 | outcome (Dose [Inhibitor]: 25 PPM IN DIET FOR 2 MONTHS (STUDY DURATION: 2 MONTHS), Species: MOUSE, Target Tissue: Type of Lesion: MIDDLE SMALL INTESTINE: TUMOR): 23.75, 10.93, 38%, p<0.001 | outcome (Dose [Inhibitor]: 50 PPM IN DIET FOR 2 MONTHS (STUDY DURATION: 2 MONTHS), Species: MOUSE, Target Tissue: Type of Lesion: DISTAL SMALL INTESTINE: TUMOR): 10.38, 2.60, 75%, p<0.001 | outcome (Dose [Inhibitor]: 50 PPM IN DIET FOR 2 MONTHS (STUDY DURATION: 2 MONTHS), Species: MOUSE, Target Tissue: Type of Lesion: MIDDLE SMALL INTESTINE: TUMOR): 23.75, 14.73, 38%, p<0.05 | outcome (Dose [Inhibitor]: 100 PPM IN DIET FOR 2 MONTHS (STUDY DURATION: 2 MONTHS), Species: MOUSE, Target Tissue: Type of Lesion: DISTAL SMALL INTESTINE: TUMOR): 10.38, 1.60, 85%, p<0.001 | outcome (Dose [Inhibitor]: 100 PPM IN DIET FOR 2 MONTHS (STUDY DURATION: 2 MONTHS), Species: MOUSE, Target Tissue: Type of Lesion: MIDDLE SMALL INTESTINE: TUMOR): 23.75, 10.40, 56%, p<0.001
